{"source": "patent US10640556B2", "about": "“Anti amphiregulin antibodies, compositions comprising same and uses thereof” (Yeda Research and Development Co. Ltd., priority 2015, dated 2020)", "key": {"MLS ovarian cancer cells": {"test_system": "MLS ovarian cancer cells", "assay": "MLS ovarian tumor xenograft in nude mice", "type": "in vivo", "details": "MLS tumors, AR30 100 μg/mouse twice a week, cisplatin 5 mg/kg, FIG. 7B", "procedure": "FIG. 7A, female nude mice (6 weeks old) were inoculated subcutaneously with MLS ovarian cancer cells (2×10^6 per animal). Once tumors became palpable, mice were randomized into two groups. Eleven mice were injected intraperitoneally with an anti-AREG mAb (AR30; 200 μg/mouse; twice a week, on days: 8, 11, 14, 17, and 21). The control group also included 11 mice. Shown are means±S.D. values; FIG. 7B, female nude mice (6 weeks old) were inoculated subcutaneously with MLS ovarian cancer cells (2×10^6 per animal). Once tumors became palpable, mice were randomized into four groups. One group (8 mice) was injected intraperitoneally with the AR30 mAb (100 μg/mouse twice a week, on days: 8, 14, 17, 21, 24 and 28). Another group (8 mice) was treated with cisplatin (5 mg/kg; on days 8 and 21). The fourth group was treated with a combination of mAb AR30 and cisplatin. The control group included 12 mice; and FIG. 7C, the indicated MLS tumors were excised, and their average weights determined. Representative tumors were photographed.\nAll animal procedures were approved by the Weizmann Institute of Science's review board. Female athymic NCr-nude mice (6 weeks old) were inoculated subcutaneously with 2×10^6 human ovarian MLS cancer cells. Once tumors became palpable (5-7 days), the mice were randomized into groups and injected intraperitoneally at the indicated time points with the indicated monoclonal antibodies, chemotherapy or the combination. Tumor volumes were monitored twice a week, and body weights were measured once a week."}, "promoter region of AREG [1]": {"test_system": "promoter region of AREG", "assay": "AREG promoter luciferase reporter in MLS cells", "type": "cell-based, human", "details": "MLS ovarian cells, increasing concentrations of cisplatin, 48 hours", "procedure": "(§1) FIGS. 5A-5B illustrate transcriptional activation of the AREG promoter by cisplatin. FIG. 5A is a graph illustrating the results of MLS cells transfected with a luciferase reporter containing the promoter region of AREG. Luciferase activity derived from the Renilla luciferase, was determined and normalized to that derived from the firefly luciferase reporter. Twenty-four hours after transfection, increasing concentrations of cisplatin were added and 48 hours later the cells were subjected to luciferase assay; and FIG. 5B illustrates the results of A549 lung cancer cells treated as in FIG. 5A. Averages of triplicates and S.D. values (bars) are presented (*P<0.03, **P<0.01, t-test). For promoter reporter assays, MLS and A549 cells were co-transfected with a Renilla luciferase plasmid containing the promoter region of AREG, TGF-alpha, a positive control of promoter activity, namely GAPDH, or a random control vector R01 used as a negative control (SwitchGear Genomics). Additionally, the pGL3-Control vector containing Firefly luciferase (Promega) was transfected as a control for transfection efficiency. Promoter activity was determined using the dual-luciferase reporter assay system according to the manufacturer's instructions (Promega). Renilla luciferase luminescence values were normalized to Firefly luminescence and quantified relative to control."}, "promoter region of AREG [2]": {"test_system": "promoter region of AREG", "assay": "AREG promoter luciferase reporter in A549 cells", "type": "cell-based, human", "details": "A549 lung cells, increasing concentrations of cisplatin, 48 hours", "procedure": "as §1"}, "[3]": {"test_system": "MLS ovarian cancer cells and A549 lung cancer cells", "assay": "ELISA of ligand secretion by MLS and A549 cells", "type": "cell-based, human", "details": "ovarian (MLS) and lung (A549) cancer cells exposed to cisplatin", "procedure": "(§2) FIGS. 5C-5F illustrate that AREG, unlike HB-EGF and TGF-alpha, undergoes up-regulation in response to a chemotherapeutic agent. FIG. 5C is a graph illustrating results of MLS cells transfected with a luciferase reporter containing the promoter region of TGF-alpha. The luciferase activity derived from the Renilla luciferase was normalized to that derived from the firefly luciferase (co-transfection control). Twenty-four hours after transfection, increasing concentrations of cisplatin were added, and 24 hours later the cells were subjected to luciferase assays; FIG. 5D is a graph illustrating assessment of GAPDH promoter activity as described in FIG. 5C; FIG. 5E is a graph illustrating the results of MLS ovarian cancer cells exposed to increasing concentrations of cisplatin. Cells were assessed for the secretion of the indicated ligands using ELISA; and FIG. 5F is a graph illustrating assessment of the A549 lung cancer cell line analyzed as in FIG. 5E. Human cancer cell lines were seeded in 10 cm plates, covered with medium (6 mL) and incubated for 4 days. The supernatants were collected and centrifuged at 1200 rpm for 5 minutes."}, "[4]": {"test_system": "promoter region of TGF-alpha", "assay": "TGF-alpha promoter luciferase reporter in MLS cells", "type": "cell-based, human", "details": "increasing concentrations of cisplatin, 24 hours", "procedure": "as §2, with “[…] Promoter activity was determined using the dual-luciferase reporter assay system according to the manufacturer's instructions (Promega). Renilla luciferase luminescence values” for “Human cancer cell lines”, “normalized to Firefly luminescence” for “seeded in 10 cm plates, covered with medium (6 mL)”, “quantified relative to control.” for “incubated for 4 days. The supernatants were collected and centrifuged at 1200 rpm for 5 minutes.”"}, "Caspase-3": {"test_system": "Caspase-3", "assay": "Caspase-3 cleavage immunoblot in OVCAR5 cells", "type": "cell-based, human", "details": "cisplatin 5 μg/mL overnight as positive control", "procedure": "FIGS. 4A-4D illustrate that depletion of AREG expression inhibits tumorigenic growth of human ovarian cancer cells. FIG. 4A is a graph illustrating results of OVCAR5 ovarian cancer cells treated with lentiviral expression constructs, either a scrambled shRNA or an AREG-specific shRNA. Conditioned media were collected three days later and the levels of secreted AREG were assessed using ELISA; FIG. 4B is a graph illustrating the growth rates of shAREG or shControl OVCAR5 cells measured using the MTT assay. Shown are means±S.D. values of hexaplicates (*P<0.005, t-test); FIG. 4C is a photograph illustrating Caspase-3 cleavage as assessed using immunoblotting and OVCAR5 sub-lines stably expressing three different shAREGs, or shControl. The assay was performed either in full medium or under serum starvation. Overnight treatment with cisplatin (5 μg/mL) was used as a positive control. […] Female nude mice (6 weeks old; 10 per group) were inoculated subcutaneously with OVCAR5 ovarian cells (3×10^6 per animal) pre-treated with either a scrambled shRNA or the AREG-specific shRNA. Tumor volumes were measured as indicated. Data points are presented as mean volume±S.D. values (*P<0.005, t-test)."}, "[5]": {"test_system": "feedback regulatory components of the EGFR signaling pathways", "assay": "qPCR of feedback regulators of EGFR signaling in MCF10A cells", "type": "cell-based, human", "procedure": "FIGS. 3A-3F illustrate that amphiregulin acts as a weak inducer of transcription-mediated feedback regulatory loops of EGFR signaling. […] Shown are mRNA profiles representative of two independent biological repeats.\nTotal RNA was extracted using the PerfectPure RNA Cultured Cell Kit (5-prime) according to the manufacturer's instructions. Total RNA quantity and quality were determined using the NanoDrop® ND-1000 Spectrophotometer. Complementary DNA was synthesized using the High Capacity Reverse Transcription kit (Applied Biosystems, Life Technologies). Primers for the positive (EREG, TGF-alpha and HB-EGF), negative regulators (MIG6/RALT, DUSP1 and DUSP6) and beta2-microglobulin (B2M) were as previously described (Lauriola M et al., (2014) Nat Commun. 5: 5073). The KiCqStart primers from Sigma-Aldrich were used to detect the levels of human AREG (H_AREG_3). Real-time qPCR analysis was performed with SYBR Green (Applied Biosystems) and specific primers on the StepOne Plus Real-Time PCR system (Applied Biosystems). qPCR signals (cT) were normalized to B2M."}, "EGFR [6]": {"target": "T1, EGFR (Homo sapiens, UniProt P00533)", "assay": "Receptor downregulation assay in MCF10A cells", "type": "cell-based", "set-up": "endogenous in cells", "details": "AREG 1 ng/mL or 100 ng/mL", "procedure": "FIGS. 2G-2H illustrate that AREG is a low affinity ligand able to induce only limited receptor downregulation in normal epithelial cells. FIG. 2G is a graph illustrating results of the immortalized human mammary cell line MCF10A used for ligand displacement assays. […] The cells were later washed and lysed, and the associated radioactivity was determined. The extent of ligand displacement (mean±range of triplicates) is depicted; and FIG. 2H is a graph illustrating results of MCF10A cells grown in 12 well plates and starved overnight for serum factors. […] The cells were later washed, lysed in 1N NaOH and their radioactivity was determined. Averages of triplicates and S.D. values (bars) are presented.\n(§3) At the end of the incubation period, the cells were placed on ice, washed with ice cold medium and subjected to mild acid wash (0.2 M Na-acetate buffer, pH 4.5, and 0.5 M NaCl) for 2 minutes, followed by 2 washes in ice cold medium. […] Finally, cells were lysed in 1 N NaOH, and their radioactivity was determined."}, "EGFR [7]": {"target": "T1, EGFR", "assay": "Ligand-induced receptor ubiquitination assay (MCAS, MLS, H358, A549 cells)", "type": "cell-based", "set-up": "endogenous in cells; host or cells: MCAS, MLS, H358, A549", "details": "10 minutes", "procedure": "(§4) The cells were later washed and lysed, and the associated radioactivity was determined. […] The cells were later washed and lysed in 1 N NaOH. Cell-associated radioactivity was determined. […] Washed immunocomplexes, along with whole extracts, were immunoblotted with the indicated antibodies.\nFor determination of ligand-induced receptor ubiquitination, cells were extracted in lysis buffer (50 mM HEPES pH 7.5, 150 mM NaCl, 10% glycerol, 1% Triton X-100, 1 mM EDTA, 1 mM EGTA, 10 mM NaF and 30 mM 3-glycerol phosphate) with freshly added 0.2 mM Na3VO4, a protease inhibitor cocktail and 2 mM N-ethylmaleimide (NEM). Twenty μL of protein G agarose beads and 1 μg of antibody were added to 500 μg of protein lysate. After a 2 hour incubation at 4° C., the immunoprecipitates were collected by centrifugation at 14,000 rpm at 4° C. for 1 minute. The supernatant was discarded and the pellet was washed thrice, prior to electrophoresis."}, "EGFR [8]": {"target": "T1, EGFR", "assay": "Receptor downregulation assay in MCAS cells", "type": "cell-based", "set-up": "endogenous in cells; host or cells: MCAS, MLS, H358, A549", "details": "ligand 50 ng/ml", "procedure": "as §4, §3"}, "EGFR [9]": {"target": "T1, EGFR", "assay": "Ligand displacement of radiolabeled EGF on MCAS cells", "type": "binding", "set-up": "endogenous in cells; host or cells: MCAS, MLS, H358, A549", "details": "displacement of 125I-EGF (50 ng/mL), 3 hours on ice", "procedure": "FIGS. 2A-2F illustrate that AREG is a low affinity ligand that induces limited receptor downregulation, as well as weak ubiquitination and degradation of EGFR. […] The cells were later washed and lysed, and the associated radioactivity was determined. The extent of ligand displacement (mean±range of triplicates) was plotted with respect to binding in the absence of an unlabeled ligand; FIG. 2B is a graph showing results of MCAS ovarian cells incubated in a 12 well plate and starved overnight for serum factors. […] The cells were later washed and lysed in 1 N NaOH. Cell-associated radioactivity was determined. […] Washed immunocomplexes, along with whole extracts, were immunoblotted with the indicated antibodies.\nFor ligand displacement assays, cells were grown in 12-well plates and serum-starved for 12-15 hours. […] The cells were later washed, lysed and their radioactivity counted."}}}
{"compound": "N.N.[Cl][Pt][Cl]", "note": "[cisplatin]", "values": [{"measurement": "tumor growth", "setting": "MLS ovarian cancer cells", "result": "only mildly inhibited"}, {"measurement": "increase in AREG promoter reporter activity", "setting": "promoter region of AREG [1]", "result": 2, "unit": "fold"}, {"measurement": "increase in AREG promoter reporter activity", "setting": "promoter region of AREG [2]", "result": 1.5, "unit": "fold"}, {"measurement": "secretion of EGF-family ligands to the medium", "setting": "[3]", "result": "increased secretion of AREG, not EGF, TGF-alpha or HB-EGF"}, {"measurement": "TGF-alpha promoter reporter activity", "setting": "[4]", "result": "no consistent, cisplatin-induced changes in TGF-alpha induction"}, {"measurement": "Caspase-3 cleavage", "setting": "Caspase-3", "result": "cleaved only in cells incubated for 12 hours in the presence of cisplatin"}]}
{"compound": "AREG: amphiregulin, low-affinity EGF-family ligand of EGFR", "values": [{"measurement": "induction of feedback regulator transcripts (qPCR)", "setting": "[5]; ligand 10 ng/ml", "result": "hardly detectable signals"}, {"measurement": "induction of feedback regulator transcripts (qPCR)", "setting": "[5]; ligand 100 ng/ml", "result": "clear, time dependent transcription of the six tested genes"}, {"measurement": "EGFR downregulation", "setting": "EGFR [6]", "result": "effective downregulation of EGFR was observed only when testing very high concentrations"}, {"measurement": "ubiquitination of EGFR", "setting": "EGFR [7]; ligand 100 ng/mL, MCAS, MLS, H358, A549 cells", "result": "failed to do so"}, {"measurement": "ubiquitination of EGFR", "setting": "EGFR [7]; ten-fold higher concentration (1 μg/mL)", "result": "comparable levels of receptor ubiquitination as EGF and TGF-alpha"}, {"measurement": "EGFR downregulation", "setting": "EGFR [8]", "result": "approximately 30%"}, {"measurement": "lower binding affinity compared to EGF", "setting": "EGFR [9]", "result": "approximately 100 fold"}]}
